Tests used:
HrR3 in U87 glioma cells = test: PCR viral titer (ICP27 qPCR) of HrR3 in U87 glioma cells; format: cell-based, HSV-1; conditions: HrR3 MOI of 1, 48 hours
Description: (§1) FIGS. 2A-2B contain charts that show the effect of nifuroxazide on replication of oHSV-1. (FIG. 2A) Indicated cells were infected with HrR3 viruses at MOI-0.1. Viruses were harvested at 48 hours post-infected and titrated in vero cells. Data are presented as mean SD, *P<0.05 vs corresponding vehicle treatment. (FIG. 2B) U87 or glio cells were treated with HrR3 at a MOI of 1 and indicated concentration of nifuroxazide for 48 hours. Total DNA was extracted and subjected to qPCR to detect HSV-1 using ICP27 primer. nifuroxazide mediated oHSV-1% increase was represented in the figure.
(§2) In this example, the effect of nifuroxazide on oHSV-1 anti-tumor efficacy was evaluated. oHSV-1 infected treated glioma cells were incubated with low concentration of nifuroxazide. Replication increased 27- and 40-fold with 0.5 μM nifuroxazide and 10 μM nifuroxazide treated U87 cells respectively. Similarly, virus replication increased 0.8- and 4.7-fold virus in 9L cells treated with 0.5 μM nifuroxazide and 10 μM nifuroxazide respectively (FIG. 2A).

BTUC cells = test: MTT cytotoxicity assay, BTUC cells; format: cell-based; conditions: 72 hours, read-out: Inhibitory concentration 50% (IC50)
Description: (§3) FIGS. 1A-1B are graphs that show an anti-tumor effect of nifuroxazide. (FIG. 1A) Cells were treated with indicated concentration of nifuroxazide for 72 hours. Cytotoxicity was measured by using MTT assay. (FIG. 1B) Subcutaneously U87 tumor bearing mice were peritoneally injected with indicated doses of nifuroxazide. Tumor size was measured using calipers at day 7 post nifuroxazide treatment.
(§4) In this example, the antitumor effect of nifuroxazide is evaluated in different tumor cells. Cells were treated with nifuroxazide for 72 hours (FIG. 1A). […] To verify the anti-tumor efficacy of nifuroxazide in vivo, animals with subcutaneous U87 tumor implants were injected in the peritoneum with vehicle, 1 mg/kg nifuroxazide and 50 mg/kg nifuroxazide. […] Tumor volume was reduced around 25% and 60% after 7 days treatment with 1 mg/kg nifuroxazide and 50 mg/kg nifuroxazide respectively (FIG. 1B).
(§5) Cells were seeded in a 96-well plate at a density of 1×104 (U87). After overnight incubation, cells were treated with only vehicle or indicated MOI of virus or indicated concentration of drugs or reagents. After 2 to 3 days of treatment cell viability was measured by MTT assay (Sigma, Canada) according to the manufacturer's instruction. […] After overnight incubation with lysis buffer, cell viability was measured at 595 nm using a plate reader (Envision 2103 Multilabel reader, Perkin Elmer).

U373 cells = test: MTT cytotoxicity assay, U373 cells; format: cell-based; conditions: Homo sapiens, U373 MG, 72 hours, read-out: Inhibitory concentration 50% (IC50)
Description: as §3, §4, §5

SF126 cells = test: MTT cytotoxicity assay, SF126 cells; format: cell-based; conditions: Homo sapiens, SF-126, 72 hours, read-out: Inhibitory concentration 50% (IC50)
Description: as §3, §4, §5

[1] = tested on: oHSV-1 (HrR3) in 9L cells; test: oHSV-1 (HrR3) replication in 9L cells, titrated in vero cells; format: cell-based, HSV-1; conditions: HrR3 MOI-0.1, 48 hours
Description: as §1, §2

9L cells = test: MTT cytotoxicity assay, 9L cells; format: cell-based; conditions: 72 hours, read-out: Inhibitory concentration 50% (IC50)
Description: as §3, §4, §5

STAT1 = target: T1, STAT1 (Mus musculus, UniProt P42225); test: Western blot of STAT1 phosphorylation in CT26 cells; format: cell-based; conditions: 24 hours
T1 construct: Total protein was extracted after 24 hours and subjected to western blot analysis; endogenous in cells; host or cells: CT26 cells, with or without HrR3 infection
T1 sequence (P42225 whole entry): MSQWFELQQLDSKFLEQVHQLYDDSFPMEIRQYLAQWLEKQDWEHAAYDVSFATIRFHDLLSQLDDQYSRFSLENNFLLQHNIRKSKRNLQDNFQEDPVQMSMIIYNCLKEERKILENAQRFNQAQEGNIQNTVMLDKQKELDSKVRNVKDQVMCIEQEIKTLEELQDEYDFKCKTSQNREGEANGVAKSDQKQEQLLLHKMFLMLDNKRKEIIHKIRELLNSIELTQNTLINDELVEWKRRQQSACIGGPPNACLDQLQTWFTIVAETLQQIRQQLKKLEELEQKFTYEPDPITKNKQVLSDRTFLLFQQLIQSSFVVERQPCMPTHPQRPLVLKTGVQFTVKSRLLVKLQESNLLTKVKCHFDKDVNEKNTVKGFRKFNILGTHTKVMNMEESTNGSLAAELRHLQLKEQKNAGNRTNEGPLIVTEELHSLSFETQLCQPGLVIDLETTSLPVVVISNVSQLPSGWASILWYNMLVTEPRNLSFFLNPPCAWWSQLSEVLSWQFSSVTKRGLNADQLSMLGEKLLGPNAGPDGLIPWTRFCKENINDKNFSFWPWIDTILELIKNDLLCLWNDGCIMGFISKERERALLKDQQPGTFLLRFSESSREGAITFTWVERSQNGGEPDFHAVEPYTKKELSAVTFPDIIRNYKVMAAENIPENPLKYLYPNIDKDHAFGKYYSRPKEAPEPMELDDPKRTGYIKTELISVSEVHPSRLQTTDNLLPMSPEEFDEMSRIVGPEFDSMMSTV
Description: FIG. 19A and FIG. 19B, U87 cells (A) or CT26 cells (B) were treated with the indicated concentrations of HrR3 or NF or a combination. Total protein was extracted after 24 hours and subjected to western blot analysis. Band intensity was measured using Image J software and normalized to β-actin. Samples were run in triplicate and data are as means±S.E. Statistically significant differences are indicated by P<0.05 or P<0.01. FIG. 19C, Mice subcutaneously bearing U87 tumors were intratumorally injected with a single dose of HrR3 virus (1×10^6 PFU) and/or peritoneally injected doses of NF as indicated. Tumors were harvested on day 10 post treatment and total protein was extracted from a mouse of each treatment group and subjected to western blot analysis in triplicate. Results are reported as means±S.E.
NF is a known inhibitor of STAT1 and STAT3. To evaluate the underlying molecular mechanism of the anti-tumour effect of the NF and oHSV-1 combination, the STAT1 and STAT3 status in U87 cells (FIG. 19A) and CT26 cells (FIG. 19B) cells was determined after an overnight treatment with NF and oncolytic viruses.

O=C(N/N=C/c1ccc([N+](=O)[O-])o1)c1ccc(O)cc1 [nifuroxazide, Benzoic acid, 4-hydroxy-, [(5-nitro-2-furanyl)metylene]hydrazide]
PCR viral titer (HrR3 in U87 glioma cells): dose dependent HrR3 replication enhancement
IC50 (BTUC cells): ~15 µM
IC50 (U373 cells): ~23 µM
IC50 (SF126 cells): ~20 µM
virus replication increased ([1]; 0.5 μM nifuroxazide): 0.8 fold
virus replication increased ([1]; 10 μM nifuroxazide): 4.7 fold
IC50 (9L cells): ~27 µM
HrR3 induced upregulation of STAT1 phosphorylation (STAT1): effectively suppressed
phosphorylation of STAT1 (STAT1; NF alone): dose dependent inhibition
